Laboratory results: patent publication US20030032636A1, “Combination of a serotonin reuptake inhibitor and a 5-HT2C antagonist, inverse agonist or partial agonist” (H. Lundbeck A/S, priority 1999, published 2003)

What was measured:
[1] = molecular target: T1, 5-HT2C receptor (Rattus norvegicus, UniProt P08909); test: 5-HT2C binding (3H-Mesulergine, SR-3T3 cells); settings: 0.5 nM 3H-Mesulergine
T1 construct: host or cells: SR-3T3 cells
T1 sequence (P08909 33-460): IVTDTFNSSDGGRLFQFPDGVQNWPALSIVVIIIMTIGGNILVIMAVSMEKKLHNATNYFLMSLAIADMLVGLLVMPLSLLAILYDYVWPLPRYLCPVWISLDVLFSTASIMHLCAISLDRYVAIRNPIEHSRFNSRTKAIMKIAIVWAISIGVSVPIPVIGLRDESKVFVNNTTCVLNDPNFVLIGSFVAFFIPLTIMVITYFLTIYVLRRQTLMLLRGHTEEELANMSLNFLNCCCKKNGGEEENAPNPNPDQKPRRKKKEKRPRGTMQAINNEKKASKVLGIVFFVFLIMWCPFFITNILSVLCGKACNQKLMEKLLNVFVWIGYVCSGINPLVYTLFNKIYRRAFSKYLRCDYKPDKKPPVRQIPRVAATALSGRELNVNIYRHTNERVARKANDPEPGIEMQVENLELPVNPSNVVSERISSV
Protocol: The cell suspension is centrifuged and the pellet resuspended in 50 mM Tris, HCl, pH 7.7 and stored at −80° C. For experimental use, the frozen cell pellet is thawed and homogenised with an Ultra Turrax for 10-15 seconds. 1.5 mg cell preparation is incubated with 0.5 nM 3H-Mesulergine for 60 minutes at 37° C. Incubation is terminated by rapid filtration through Filtermat B filters and bound radioactivity is determined in a Tricarb scintillation counter.

[2] = test system: 5-HT levels in rat ventral hippocampus; test: Microdialysis, ventral hippocampus 5-HT levels; assay type: in vivo; settings: for enhancement of the effect of citalopram on ventral hippocampal 5-HT levels: 1 μmol/kg simultaneous with 10 μmol/kg citalopram; for serotonin levels as measured in microdialysis experiments: administered alone (summary statement); for effect on rat ventral hippocampal 5-HT levels: 1 μmol/kg subcutaneous; for level of extracellular serotonin: in combination with SSRIs (summary statement)
Source text: Male albino rats of a Wistar-derived strain (285-320 g; Harlan, Zeist, The Netherlands) were used for the experiments. The rats were housed in plastic cages (35×35×40 cm), and had free access to food and water. The experiments are concordant with the declarations of Helsinki and were approved by the Animal Care Committee of the Faculty of Mathematics and Natural Science of the University of Groningen.
The following drugs were used: Citalopram hydrobromide and internal standard (kindly donated by Lundbeck (Copenhagen, Denmark), courtesy Dr. Sanchez), ritanserin and ketanserin tartrate (RBI, Natick, USA). […] All drugs were administered in a volume of 1 mL per kg.
Microdialysis experiments were performed using home made I-shaped probes, made of polyacrylonitrile I sodium methyl sulphonate copolymer dialysis fiber (i.d. 220 μm, o.d. […], AN 69, Hospal, Italy). The exposed length of the membranes was 4 mm. […] Lidocaine-HCl, 10% (m/v) was used for local anaesthesia. Rats were placed in a stereotaxic frame (Kopf, USA), and probes were inserted into the ventral hippocampus (coordinates: IA: +3.7 mm, lateral: +4.8 mm, ventral: −8.0 mm from the dura mater, Paxinos and Watson, 1982) and secured with dental cement.
Probes were perfused with artificial CSF containing 147 mM NaCl, 3.0 mM KCl, 1.2 mM CaCl2, and 1.2 mM MgCl2, at a flow-rate of 1.5 μL/min (Harvard apparatus, South Natick, Ma., USA). Samples were collected on-line in a 20 μL loop and injected automatically onto the column every 15 min.
Serotonin analysis: 5-HT was analysed using HPLC with electrochemical detection. The HPLC pump (Shimadzu LC-10 AD liquid chromatograph) was connected to a reversed phase column (phenomenex hypersil 3: 3 μm, 100×2.0 mm, C18, Bester, Amstelveen, the Netherlands) followed by an electrochemical detector (Antec Leyden, Leiden, the Netherlands), working at a potential setting of 500 mV vs. Ag/AgCl reference. The mobile phase consisted of 5 g/L di-ammoniumsulfate, 500 mg/L ethylene diamino tetra acetic acid (EDTA), 50 mg/L heptane sulphonic acid and 30 μl/L of triethylamine, at a pH of 4.65 and 4.5% (w/w) methanol and water. Flow-rate of the mobile phase was 0.4 ml/min. The detection limit was 0.5 fmol 5-HT per 20 μL sample (signal to noise ratio 3).
Level of significance level was set at p<0. 05.

[3] = test system: morphine-induced DA release in rat nucleus accumbens; settings: cited from earlier work
[4] = test system: levels of DA, NE and 5-HT in rat frontal cortex; settings: cited from earlier work
[5] = in vivo; settings: rat, sc
Source text: In the pharmacokinetic experiments, blood was drawn through a canula made of silicon tubing, which was inserted into the right jugular vein for 3.8 cm. The tubing was transferred subcutaneously to the scull of the rat, and a stainless steel inlet was connected to the tubing. The inlet was mounted on the skull with dental cement and surgical screws. After insertion, canulas were filled with a PVP solution (55% polyvinylpyrrolidon in 500 IE/mL heparin) in saline to prevent blood clotting.
Pharmacokinetic experiments: Rats were allowed to recover for at least 24 h. […]
Citalopram analysis: Citalopram was measured according to Øyehaug et al. (1982), with minor modifications. […]
With the experiments in which 5 mL plasma was obtained via the vacutainer, a similar protocol was used, but the plasma sample was now extracted three times with 10 mL of ether. An HPLC/auto-injector (1084B Liquid Chromatograph, Hewlett-Packard) was used, in combination with a fluorescence detector (470 Scanning Fluorescence detector, Waters, England) operating at an absorption wavelength of 240 nm, an emission wavelength of 296 nm, and a slit-width of 12 nm. […]
Ketanserin analysis: Ketanserin was measured using liquid-liquid extraction, followed by reversed phase chromatography in conjunction with fluorescence detection. […]

[6] = test system: mouse forced swimming test; settings: prior administration; ritanserin 4 mg/kg i.p., ketanserin 8 mg/kg i.p.; cited from earlier work
[7] = test system: prefrontal cortex 5-HT levels; test: Microdialysis, prefrontal cortex 5-HT levels; assay type: in vivo, rat
[8] = combined with fluoxetine; cited from earlier work
[9] = test system: 5-HT2C receptors; settings: cited from earlier work
[10] = test system: NE release in rat hippocampus; settings: cited from earlier work

For `Cc1ccc2c(c1)c(-c1ccc(F)cc1)c(C)n2C1CCN(CCN2CCNC2=O)CC1` [Lu 29066, 2,5-dimethyl-3-(4-fluorophenyl)-1-[1-[2-(imidazolidin-2-on-1-yl)ethyl]-piperidin-4-yl]-1H-indole], the Ki [1] was 0.0069 µM, the “enhancement of the effect of citalopram on ventral hippocampal 5-HT levels” value [2] was “significant enhancement of the effect of citalopram” and the “serotonin levels as measured in microdialysis experiments” value (“serotonin levels as measured” for short) [2] was “no increase”. For the same compound, the “effect on rat ventral hippocampal 5-HT levels” value ([2]; alone) was “had no effect” and the “level of extracellular serotonin” value [2] was “synergistically act to increase”.

For `Clc1cncc(N2CCNCC2)n1` [MK-212], the “morphine-induced DA release” value [3] is listed as “inhibited”.

With `COc1cc(OC)c(C(=O)CCCCN2CCC3(CC2)NC(=O)NC3=O)cc1NS(=O)(=O)c1ccc(C(F)(F)F)cc1` [RS 102221] the Ki [1] was 0.00056 µM, the “enhancement of the effect of citalopram on ventral hippocampal 5-HT levels” value [2] was “significant enhancement of the effect of citalopram” and the “serotonin levels as measured” value [2] was “no increase”. The “effect on rat ventral hippocampal 5-HT levels” value ([2]; alone) was “had no effect” and the “level of extracellular serotonin” value [2] was “synergistically act to increase”.

In the case of `C[C@H](N)Cn1ccc2cc(F)c(Cl)cc21` [Ro 60-0175], the “levels of both DA and NE” value [4] is listed as “suppressed” and the “levels of serotonin (5-HT)” value [4] is listed as “without modifying”.

For `Cc1cc2c(cc1Cl)N(C(=O)Nc1ccc(Oc3cccnc3C)nc1)CC2` [SB-242084], the “levels of both DA and NE” value [4] is given as “increased” and the “levels of serotonin (5-HT)” value [4] is given as “without modifying”.

Compound `CN(C)CCCC1(c2ccc(F)cc2)OCc2cc(C#N)ccc21` (centres unmarked) [citalopram] has a half-life ([5]; 10 umol/kg) of ~2 h.

In the case of `O=C1NCCN1CCN1CCN([C@@H]2C[C@@H](c3ccc(F)cc3)c3ccccc32)CC1` [irindalone], the Ki [1] is reported as 0.019 µM.

In the case of `O=C(c1ccc(F)cc1)C1CCN(CCn2c(=O)[nH]c3ccccc3c2=O)CC1` [ketanserin], the “potentiation of the effects of imipramine and desipramine (16 mg/kg i.p.)” value [6] is listed as “potentiated”, the Ki [1] is listed as 0.014 µM and the “augmentation of the citalopram induced increase in cortical 5-HT levels” value ([7]; 1 nmol/kg co-administered with citalopram) is listed as “did not augment”. The “augmentation of the citalopram induced increase in cortical 5-HT levels” value ([7]; 10 nmol/kg co-administered with citalopram, effect did not reach significance) was “transiently enhanced the effect of citalopram”, the “augmentation of the citalopram induced increase in cortical 5-HT levels” value ([7]; 100 nmol/kg simultaneous with citalopram) was “significant enhancement of the effect of citalopram” and the “effect on prefrontal cortex 5-HT levels” value ([7]; alone, dose not stated) was “did not show any effect”. The half-life ([5]; 100 nmol/kg) was ~1.5 h, the “augmentation of the effect of citalopram on ventral hippocampal 5-HT levels” value (shortened to “augmentation of the effect of citalopram”) ([2]; 1 nmol/kg co-administered with 10 μmol/kg citalopram) was “did not augment the effect of citalopram” and the “augmentation of the effect of citalopram” value ([2]; 10 nmol/kg co-administered with 10 μmol/kg citalopram) was “significantly enhanced the effect of citalopram”. The “augmentation of the effect of citalopram” value ([2]; 100 nmol/kg co-administered with 10 μmol/kg citalopram) was “significantly enhanced the effect of citalopram”, the “enhancement of the effect of fluoxetine on ventral hippocampal 5-HT levels” value ([2]; 100 nmol/kg simultaneous with 5 mg/kg fluoxetine) was “significant enhancement of the effect of fluoxetine” and the “serotonin levels as measured” value [2] was “no increase”. For the same compound, the “effect on ventral hippocampal 5-HT levels” value ([2]; alone, 100 nmol/kg subcutaneous) was “had no effect”, the “augmentation of the SSRI induced increase in 5-HT levels, ventral hippocampus” value ([2]; different doses, simultaneous with 10 μmol/kg citalopram) was “dose dependent augmentation” and the “level of extracellular serotonin” value [2] was “synergistically act to increase”.

In the case of `CN1CCN2c3ccccc3Cc3ccccc3C2C1` (centres unmarked) [mianserin], the “efficacy of fluoxetine in the treatment of treatment resistant patients” value [8] is listed as “augment the efficacy of fluoxetine” and the “latency of onset of antidepressive effect” value [8] is listed as “may shorten the latency of onset”.

With `CCc1nn(CCCN2CCN(c3cccc(Cl)c3)CC2)c(=O)n1CCOc1ccccc1` [nefazodone] the Ki [1] was 0.033 µM.

In the case of `Fc1ccc([C@@H]2CCNC[C@H]2COc2ccc3c(c2)OCO3)cc1` [paroxetine], the “effect of chronic administration on 5-HT2C receptors” value [9] is listed as “functional desensitisation”.

In the case of `Cc1nc2sccn2c(=O)c1CCN1CCC(=C(c2ccc(F)cc2)c2ccc(F)cc2)CC1` [ritanserin], the “potentiation of the effects of imipramine and desipramine (16 mg/kg i.p.)” value [6] is listed as “potentiated”, the “quipazine-induced decrease of NE release” value [10] is listed as “antagonised” and the “augmentation of the effect of citalopram” value ([2]; 10 μmol/kg i.p. given 60 minutes prior to 10 μmol/kg s.c. citalopram) is listed as “augmented the effect of citalopram significantly”. The “effect on 5-HT levels in rat ventral hippocampus” value ([2]; alone, 10 μmol/kg intraperitoneal) was “did not have any effect” and the “level of extracellular serotonin” value [2] was “synergistically act to increase”.
